The subject of series [1] is 518A2 melanoma cells. Description: Lactate dehydrogenase (LDH) cytotoxicity assay. It is filed as cell-based, human. The conditions noted are these: 518A2 cells, 10 µM, 24 h. As for the experimental part: 518A2 melanoma cells were seeded in 96-well flat bottom microtiter plates (Sarstedt) with 100 µL per well and a cell density of 0.05 × 10^6 cells per mL. Wells containing medium alone were additionally set for background measurement. Cells were allowed to grow overnight followed by substance treatment with 11.1 µL of tenfold concentrated test compound dilutions and further incubated for 24 h. As a positive control, 10 µL per well of lysis solution (9% Triton-X 100 in Millipore H2O) was added and incubated for 45 min to maintain maximum LDH release, the same amount was added to maximum release background correction wells containing only medium. After centrifugation (4 °C, 150×g, 5 min), 50 µL of the supernatant of each well was transferred on a fresh microtiter plate followed by addition of 50 µL LDH assay buffer (223 mg of 2-p-iodophenyl-3-p-nitrophenyl-5-phenyltetrazolium chloride, 57 mg of N-methyl-phenazonium methyl sulfate, 575 mg of […], 3.2 g of lactic acid in 480 ml 200 mM Tris–Cl, pH 8.0) per well. The plate was incubated in the dark for 10–30 min at room temperature. Then 50 µL stop solution (1 M acetic acid) was added per well and the absorbance was measured at 490 nm. The mean value of background wells with medium alone was subtracted from the negative control and test wells. Additionally, the mean value of volume correction wells was subtracted from maximum LDH release wells. The percentage of LDH release was calculated, with the maximum LDH release set as 100% and the negative control as 0% release. Means and SD were calculated from at least three independent experiments.

For series [2], the system named is HT-29 colon carcinoma cells. Description: MTT cell viability assay, HT-29. Type of series: cell-based, human. As for the experimental part: (§1) All complexes stable in solution were investigated for their anti-proliferative effect on nine human cancer cell lines, using the MTT-based cell viability assay. Cells were seeded in 96-well microtiter plates (Sarstedt) with a cell density of 0.05 × 10^6 cells per ml and 100 µL per well and incubated for 24 h. A dilution series of test compounds was added to the wells, ranging in twelve steps from 100 µM to 5 nM. As a control, equal amounts of DMSO were added. Treated cells were further incubated for 72 h. Then, 12.5 µL per well of MTT solution (0.05% in phosphate-buffered saline (PBS)) was added, followed by another 2 h of incubation. The plates were centrifuged, the medium was discarded and 25 µL per well of SDS solution in DMSO (10% SDS, 0.6% AcOH in DMSO) was added to dissolve the formazan. The plates were incubated for a further hour. Absorbances at 570 nm and 630 nm were measured using a plate reader (Tecan). Background absorbance (630 nm) was subtracted from the formazan signal (570 nm). The resulting absorbance was directly proportional to the amount of viable cells. The control was normalized to 100% viable cells and viability of cells treated with test compounds was calculated accordingly. IC50 values were calculated based on a sigmoidal fit model using GraphPad Prism. Means and SD were calculated from at least four independent experiments.

In series [3] the test system is caspase 3/7 in 518A2 melanoma cells. Nature of the series: Caspase 3/7 activation. It is filed as cell-based, human. As to conditions: 518A2 cells, 10 µM, 6 h. The procedure: The assay was conducted, following manufacturer’s instructions using the Cell Meter Caspase 3/7 activity apoptosis assay kit (AAT Bioquest). Briefly, 518A2 melanoma cells were seeded in 96-well flat black microtiter plates with a density of 0.22 × 10^6 cells per mL and 90 µL per well. After 24 h of incubation, 10 µL per well of tenfold diluted test compounds was added, and the cells were incubated for a further 6 h. Subsequently, 100 µL per well of Caspase 3/7 substrate working solution was added and incubated for 1 h in the dark at room temperature. The fluorescence was measured using a micro-plate reader (Tecan) at ex/em = 490/525 nm.

The subject of series [4] is HeLa cervix carcinoma cells. Nature of the series: MTT cell viability assay, HeLa. Type of series: cell-based, human. As to conditions: 72 h. As for the experimental part:
as §1

For series [5], the system named is human adult dermal fibroblasts HDFa. Nature of the series: MTT cell viability assay, HDFa. Type of series: cell-based. As to conditions: 72 h, non-malignant fibroblasts. As for the experimental part: as §1
A general note: Tetrazolium assays rely on reduction of a dye to a coloured formazan, in cell work by metabolically active cells.

For a further series, the system named is U-87 glioblastoma cells. Description: MTT cell viability assay, U-87. Type of series: cell-based, human. As to conditions: 72 h. The procedure:
as §1

The test system of series [6] is 518A2 melanoma cells. Nature of the series: MTT cell viability assay, 518A2. Type of series: cell-based, human. The procedure:
as §1

For series [7], the system named is EA.hy926 endothelial hybrid cells. Description: MTT cell viability assay, EA.hy926. It is filed as cell-based, human. As for the experimental part: as §1
For series [8], the system named is mdr KB-V1^Vbl cervix carcinoma cells. Description: MTT cell viability assay, KB-V1 (with and without verapamil). It is filed as cell-based, human. The conditions noted are these: 72 h, without verapamil. As for the experimental part:
as §1

The subject of series [9] is thioredoxin reductase (TrxR). Nature of the series: Inhibition of TrxR activity in cell lysates. Type of series: biochemical, human. The conditions noted are these: lysates of 518A2 melanoma cells. As for the experimental part:
For the measurement of TrxR activity, the TrxR Colorimetric Assay Kit (Cayman Chemicals) was used according to manufacturer’s instructions. 1 × 10^8 518A2 melanoma cells were harvested using a cell scraper, homogenized in 5 mL of cold lysis buffer (50 mM K3PO4, 1 mM EDTA, pH 7.4) on ice and centrifuged for 15 min (4 °C, 10,000×g). The protein concentration of the supernatant was determined via Nanodrop. Then, 10 µL Protease Inhibitor Cocktail Plus (Carl Roth) was added to 1 mL of the cell lysate, which was either used for the assay right away or stored at − 80 °C. Prior to use, the assay buffer was warmed to room temperature and the cell lysate, NADPH (Nicotinamide adenine dinucleotide phosphate), ATM (aurothiomalate) and rat liver TrxR enzyme were thawed and kept on ice After determination of the amount of cell lysate for optimum TrxR activity, alle components were pipetted into the wells of a clear 96-well plate and the enzymatic reactions were initiated by addition of NADPH and 5,5′-dithiobis-(2-nitrobenzoic acid (DTNB). Then, the absorbance at 405 nm was measured once every minute using a plate reader (Tecan) at least ten time points. The TrxR activity was measured in the presence and absence of ATM. The difference between the two results renders the DTNB reduction due to TrxR activity. By plotting the average absorbance values as a function of time, the slope of the linear portion of the curve was obtained, and the change of absorbance (ΔA405) per minute could be determined. The values were corrected for unspecific DTNB reduction and the TrxR activity was calculated using the following formula: TrxR activity [µmol/min/mL] = [corrected ΔA/min (sample)/7.92 mM^−1] × [0.2 mL/0.02 mL] × sample dilution. The assay was conducted at 22 °C. All experiments were performed in triplicate and the solvent-treated negative controls were set to 100%.

SMILES strings stand for the structures. Where “and” joins values, the source holds several entries; their conditions need not be identical. Identical values can stand only once. Where only a bound is given, the exact number is not on record here.

The IC50 is the concentration that gives 50% inhibition. Read a high IC50 as weaker potency in that assay. Turning to `Sc1ncnc2nc[nH]c12` [6-MP, 6-Mercaptopurine, reference compound], the “LDH release (necrosis)” value with 518A2 melanoma cells [1] is given as “no enzyme could be detected”. For the same compound, the IC50 in series [2] (Homo sapiens, HT-29, 72 h) is 1400 ± 60 nM; in [4] (Homo sapiens, HeLa) it was 1400 ± 100 nM; in [5] (Homo sapiens, HDFa), > 50000 nM; in the series with U-87 glioblastoma cells (Homo sapiens), 1400 ± 130 nM; with 518A2 melanoma cells [6] (Homo sapiens, 518A2, 72 h), 11000 ± 1100 nM; in series [7] (Homo sapiens, EA.hy 926, 72 h), 920 ± 40 nM. Further, the midpoint of inhibition in [8] (Homo sapiens, KB-V1/Vbl), the IC50, lay at 1600 ± 100 nM. The “Caspase 3/7 activity” value in series [3] was “increased caspase activity levels”. Moreover, in series [9], the “Inhibition of TrxR activity” value is “inhibited TrxR”.

In the case of `Nc1nc2nc[nH]c2c(=S)[nH]1` [6-TG, 6-thioguanine, reference compound], in the series on 518A2 melanoma cells [1], the “LDH release (necrosis)” value is recorded as “no enzyme could be detected”. For the same compound, the IC50 is 1200 ± 80 nM in series [2] (Homo sapiens, HT-29, 72 h); 190 ± 10 nM in series [4] (Homo sapiens, HeLa); > 50000 nM in series [5] (Homo sapiens, HDFa); 1700 ± 80 nM with U-87 glioblastoma cells (Homo sapiens); 5200 ± 450 nM with 518A2 melanoma cells [6] (Homo sapiens, 518A2, 72 h); 250 ± 20 nM in [7] (Homo sapiens, EA.hy 926, 72 h). The same compound registered an IC50 in series [8] (Homo sapiens, KB-V1/Vbl) of 500 ± 50 nM. Also, the “Caspase 3/7 activity” value in [3] is on record as “increased caspase activity levels”. The “Inhibition of TrxR activity” value in series [9] is reported as “inhibited TrxR”.

Take `CC(=O)OC[C@H]1O[C@@H]([S-])[C@H](OC(C)=O)[C@@H](OC(C)=O)[C@@H]1OC(C)=O.CCP(CC)CC.[Au+]` [Auranofin, auranofin]: in the series on 518A2 melanoma cells [1], the “LDH release (necrosis)” value is reported as “no enzyme could be detected”. Also, the 50% inhibitory concentration (IC50) in series [2] (72 h) was determined as 2000 ± 180 nM; in the series with U-87 glioblastoma cells, 2400 ± 240 nM; in [7] (72 h), 820 ± 40 nM; in [8], 1900 ± 70 nM. For the same compound, the “Caspase 3/7 activity” value in series [3] was “increased caspase activity levels”. Moreover, in [9], the “Inhibition of TrxR activity” value was “inhibited TrxR”.

With `OC[C@H]1O[C@@H](n2cnc3c([S][Au][PH](c4ccccc4)(c4ccccc4)c4ccccc4)ncnc32)[C@H](O)[C@@H]1O` [Complex 5, (1,7-Dihydro-6H-purine-9-β-D-ribofuranosyl-6-thiolato) (triphenylphosphane) gold(I)], the “LDH release (necrosis)” value in the series with 518A2 melanoma cells [1] is “no enzyme could be detected”. Besides, the IC50 came to 1200 ± 90 nM in [2] (72 h); 190 ± 10 nM in [4]; 36000 ± 1700 nM in series [5]; 1700 ± 150 nM in the series with U-87 glioblastoma cells; 2600 ± 250 nM in the series with 518A2 melanoma cells [6] (72 h); 340 ± 30 nM in [7] (72 h). Besides, in series [3], the “Caspase 3/7 activity” value is recorded as “increased caspase activity levels”. Further, the “Inhibition of TrxR activity” value in series [9] is “inhibited TrxR even more strongly than 6-MP, 6-TG and auranofin”.

Regarding `Nc1nc([S][Au][PH](c2ccccc2)(c2ccccc2)c2ccccc2)c2ncn([C@@H]3O[C@H](CO)[C@@H](O)[C@H]3O)c2n1` [Complex 6, (2-Amino-1,7-dihydro-6H-purine-9-β-D-ribofuranosyl-6-thiolato) (triphenylphosphane) gold(I)], the “LDH release (necrosis)” value in the series on 518A2 melanoma cells [1] was “no enzyme could be detected”. The IC50 is 3100 ± 190 nM in series [2] (72 h); 2400 ± 140 nM in series [4]; 36000 ± 3000 nM in series [5]; 1200 ± 120 nM in the series on U-87 glioblastoma cells; ~3500 nM and 3500 nM in the series on 518A2 melanoma cells [6] (72 h); 3800 ± 130 nM in series [7] (72 h). In series [8], this compound returned an IC50 of 910 ± 90 nM. Further, in series [3], the “Caspase 3/7 activity” value was “even exceeded the effects of the three controls”. Also, in series [9], the “Inhibition of TrxR activity” value is “inhibited TrxR even more strongly than 6-MP, 6-TG and auranofin”.

(Values after publication PMC9653339, “Revisiting the anticancer properties of phosphane(9-ribosylpurine-6-thiolato)gold(I) complexes and their 9H-purine precursors” (Journal of Biological Inorganic Chemistry, 2022).)
